Read-outs that look alike come from different tables or passages of the source.
Assays:
[1] = Comparative bioavailability study in dogs, plasma levels of modafinil after a single oral dose; format: in vivo, dog
Protocol: A comparative bioavailability study was carried out in dogs to determine the pharmacokinetic profile of the new polymorphs form IV and form V of modafinil. The study was aimed to compare plasma levels of polymorphs form IV and form V versus the reference form I. Six male beagle dogs were randomly assigned to three groups according to a (3×3) Latin-square design. Each group was administered a single oral 30 mg/kg body weight dose of either form IV or form V or the reference form I and two successive administrations were separated by a one-week wash-out period according to the protocol design reported table 1.
Dogs were fasted overnight prior dosing and food was returned to them four hours after dosing. Blood samples were collected after each dose by venepuncture at predose (within one hour of dosing) and at 0.5, 1, 1.5, 2, 2.5, 3, 4, 5.5, 7, 9 and 24 hours post-dose. Blood samples were collected on heparinized test tubes and immediately centrifuged at 3,000 rpm. Then plasma was drawn off and stored frozen (−20° C.) until analyzed. Plasma concentrations of modafinil were determined by validated high-pressure liquid chromatography according to the method of Moachon G. et al. (J. Chromatog. B 1994; 654: 91). Pharmacokinetic parameters were determined using noncompartimental analysis.

[2] = Relative stability of polymorphic forms; format: physicochemical; conditions: 20° C. / room temperature
Description: Modafinil form I was identified as the thermodynamic form (at room temperature). Form I is obtained via crystallization, preferably under atmospheric pressure, at room temperature.

[3] = Table 2, male beagle dogs, single oral 30 mg/kg, mean ± SEM, 30 mg/kg
[4] = Table 3, dogs, single oral 30 mg/kg, mean ± SEM, 30 mg/kg

SMILES: NC(=O)C[S+]([O-])C(c1ccccc1)c1ccccc1 (racemic) [Form I, 2-(benzhydrylsulfinyl) acetamide, reference compound]
- concentration at 4 h ([1]; male, beagle, dog, plasma, po, 30 mg/kg, Table 2, male beagle dogs, single oral 30 mg/kg, mean ± SEM, read-out: C4 h (plasma level measured at 4 hours post-dose)): 15400 ± 2560 ng/mL
- Cmax ([1]; male, beagle, dog, plasma, po, 30 mg/kg, Table 2, male beagle dogs, single oral 30 mg/kg, mean ± SEM, read-out: Cmax (maximum plasma level of modafinil)): 18600 ± 2300 ng/mL
- AUC(0-t) ([1]; male, beagle, dog, plasma, po, 30 mg/kg, Table 2, male beagle dogs, single oral 30 mg/kg, trapezoidal rule 0 to 24 hours post-dose, mean ± SEM, read-out: AUC0-24 h): 165 ± 23.7 µg·h/mL
- concentration at 1 h ([1]; male, beagle, dog, plasma, po, 30 mg/kg, Table 3, dogs, single oral 30 mg/kg, mean ± SEM, read-out: C1 h (plasma level at 1 hour post-dose)): 8810 ± 2450 ng/mL
- concentration at 1.5 h ([1]; male, beagle, dog, plasma, po, 30 mg/kg, Table 3, dogs, single oral 30 mg/kg, mean ± SEM, read-out: C1.5 h (plasma level at 1.5 hours post-dose)): 12700 ± 2390 ng/mL
- concentration at 2 h ([1]; male, beagle, dog, plasma, po, 30 mg/kg, Table 3, dogs, single oral 30 mg/kg, mean ± SEM, read-out: C2 h (plasma level at 2 hours post-dose)): 14200 ± 2230 ng/mL
- concentration at 2.5 h ([1]; male, beagle, dog, plasma, po, 30 mg/kg, Table 3, dogs, single oral 30 mg/kg, mean ± SEM, read-out: C2.5 h (plasma level at 2.5 hours post-dose)): 14200 ± 1950 ng/mL
- Cmax ([1]; male, beagle, dog, plasma, po, 30 mg/kg, Table 3, dogs, single oral 30 mg/kg, mean ± SEM, read-out: Cmax): 18600 ± 2300 ng/mL
- Tmax ([1]; male, beagle, dog, plasma, po, 30 mg/kg, Table 3, dogs, single oral 30 mg/kg, mean, read-out: Tmax (time to reach peak plasma level of modafinil)): 3 h
- MRT ([1]; male, beagle, dog, plasma, po, 30 mg/kg, Table 3, male beagle dogs, single oral 30 mg/kg, mean ± SEM, read-out: MRT (mean residence time)): 6.91 ± 0.53 h
- stability of the polymorphic form [2]: most stable form

SMILES: NC(=O)C[S+]([O-])C(c1ccccc1)c1ccccc1 (racemic) [Form IV, 2-(benzhydrylsulfinyl) acetamide]
- C4 h (plasma level measured at 4 hours post-dose) [1, 3]: 21230 ± 1880 ng/mL
- Cmax (maximum plasma level of modafinil) [1, 3]: 24980 ± 1120 ng/mL
- AUC0-24 h ([1]; Table 2, male beagle dogs, single oral 30 mg/kg, trapezoidal rule 0 to 24 hours post-dose, mean ± SEM, 30 mg/kg): 200.69 ± 18.09 µg·h/mL
- systemic exposure (Cmax and AUC0-24h) compared with form I ([1]; dogs, equivalent dose 30 mg/kg by oral route): substantially higher

SMILES: NC(=O)C[S+]([O-])C(c1ccccc1)c1ccccc1 (racemic) [Form V, 2-(benzhydrylsulfinyl) acetamide]
- C1 h (plasma level at 1 hour post-dose) [1, 4]: 12410 ± 2070 ng/mL
- C1.5 h (plasma level at 1.5 hours post-dose) [1, 4]: 15.31 ± 2.06 µg/mL
- C2 h (plasma level at 2 hours post-dose) [1, 4]: 16560 ± 2480 ng/mL
- C2.5 h (plasma level at 2.5 hours post-dose) [1, 4]: 16.37 ± 2.38 µg/mL
- Cmax [1, 4]: 18720 ± 2090 ng/mL
- Tmax (time to reach peak plasma level of modafinil) ([1]; Table 3, dogs, single oral 30 mg/kg, mean, 30 mg/kg): 1.67 h
- MRT (mean residence time) ([1]; Table 3, male beagle dogs, single oral 30 mg/kg, mean ± SEM, 30 mg/kg): 6.11 ± 0.36 h
- reduction in time needed to reach the concentration Cmax versus reference form I ([1]; dogs, equivalent oral dose 30 mg/kg): ~50%
- mean Tmax value relative to that of reference polymorph I ([1]; dogs, oral 30 mg/kg, data of Table 3): about 50%

SMILES: NC(=O)C[S+]([O-])C(c1ccccc1)c1ccccc1 (stereo not shown) [modafinil form II, 2-(benzhydrylsulfinyl) acetamide]
- stability of the polymorphic form [2]: unstable
